Results on 24 molecules are retold here after US9499493B2, “2,4-pyrimidinediamine compounds and their uses” (Rigel Pharmaceuticals, Inc., priority 2002, dated 2016).

By IC50 is commonly meant the point on the concentration scale where inhibition reaches its midpoint. A lower IC50 goes with higher potency.

Structures can show the parent of a compound that is named as a salt.

The test system of this test is cultured human mast cells (CHMC). The test is described as follows: CHMC low cell density ionomycin activation: tryptase assay. It counts as cell-based.
`CCOC(=O)COc1ccc(Nc2nc(Nc3ccc(OCC(=O)OCC)cc3)c(NC(=O)NC(=O)CCl)c(C(=O)OCC)n2)cc1` [R926589, N2,N4-Bis(4-ethoxycarbonylmethyleneoxyphenyl)-6-ethoxycarbonyl-5-(chloroacetylaminocarbonylamino)-2,4-pyrimidinediamine] yielded an IC50 of 10 µM. The figure for `CN(CCO)C(=O)c1cc2cc(Nc3ncc(F)c(Nc4cccc(O)c4)n3)ccc2o1` [R926725, 5-Fluoro-N4-(3-hydroxyphenyl)-N2-[2-(N-methyl-N-2-hydroxyethyl)carbonylbenzofuran-5-yl)-2,4-pyrimidinediamine] is greater than 10 µM; for `CNC(=O)COc1cccc(Nc2ncc(F)c(Nc3ccc(C)c(O)c3)n2)c1` [R926753, 5-Fluoro-N4-(3-hydroxy-4-methylphenyl)-N2-[3-[(N-methylamino)carbonylmethyleneoxy]phenyl]-2,4-pyrimidinediamine] it is greater than 10 µM; for `CNC(=O)COc1cc(Nc2ncc(F)c(Nc3cccc(O)c3)n2)ccc1C` [R926757, 5-Fluoro-N4-(3-hydroxyphenyl)-N2-[4-methyl-3-[(N-methylamino)carbonylmethyleneoxy]phenyl]-2,4-pyrimidinediamine] it is greater than 10 µM.

The molecule `O=C(c1cc2cc(Nc3ncc(F)c(Nc4ccc5c(c4)OCCO5)n3)ccc2o1)N1CCCNCC1` [R926767, N4-(3,4-Ethylenedioxyphenyl)-5-fluoro-N2-[2-(N-homopiperazino)carbonylbenzofuran-5-yl]-2,4-pyrimidinediamine] came in with an IC50 greater than 10 µM. The value for `O=C(c1cc2cc(Nc3ncc(F)c(Nc4ccc5c(c4)OCCO5)n3)ccc2o1)N1CCCNCC1` [R926768, N4-(3,4-Ethylenedioxyphenyl)-5-fluoro-N2-[2-(N-homopiperazino)carbonylbenzofuran-5-yl]-2,4-pyrimidinediamine Hydrogen Chloride Salt] was greater than 10 µM; that for `CNC(=O)COc1cccc(Nc2ncc(F)c(Nc3ccc4c(c3)OCCO4)n2)c1` [R926816, N4-(3,4-Ethylenedioxyphenyl)-5-fluoro-N2-[3-(N-methylamino)carbonylmethyleneoxyphenyl]-2,4-pyrimidinediamine Hydrogen Chloride Salt] was greater than 10 µM; that for `CC(C)NC(=O)COc1cccc(Nc2ncc(F)c(Nc3ccc4c(c3)OCCO4)n2)c1` [R926830, N4-(3,4-Ethylenedioxyphenyl)-5-fluoro-N2-[3-(N-isopropylamino)carbonylmethyleneoxyphenyl]-2,4-pyrimidinediamine] was 10 µM. The value for `O=C(COc1cccc(Nc2ncc(F)c(Nc3ccc4c(c3)OCCO4)n2)c1)NC1CC1` [R926848, N2-[3-(N-Cyclopropylamino)carbonylmethyleneoxyphenyl]-N4-(3,4-ethylenedioxyphenyl)-5-fluoro-2,4-pyrimidinediamine] was 10 µM. The figure for `CNC(=O)COc1cccc(Nc2ncc(F)c(Nc3cccc4c3C(=O)N(C)C4=O)n2)c1` [R926856, 5-Fluoro-N2-[3-(N-methylamino)carbonylmethyleneoxyphenyl]-N4-(N-methylphthalimido-4-yl)-2,4-pyrimidinediamine] is greater than 10 µM. `CNC(=O)COc1cccc(Nc2ncc(F)c(Nc3ccc(OC)c(Cl)c3)n2)c1` [R926891, N4-(3-Chloro-4-methoxyphenyl)-5-fluoro-N2-[3-[(N-methylamino)carbonylmethyleneoxy]phenyl]-2,4-pyrimidinediamine] registered an IC50 greater than 10 µM. The figure for `CNC(=O)COc1cccc(Nc2ncc(F)c(Nc3ccc(OC)c(F)c3)n2)c1` [R926892, 5-Fluoro-N4-(3-fluoro-4-methoxyphenyl)-N2-[3-[(N-methylamino)carbonylmethyleneoxy]phenyl]-2,4-pyrimidinediamine] is greater than 10 µM; for `CNC(=O)C(C)(C)Oc1cccc(Nc2ncc(F)c(Nc3cccc(O)c3)n2)c1` [R926913, 5-Fluoro-N4-(3-hydroxyphenyl)-N2-[3-[(N-methylamino)carbonyl-1,1-dimethylmethyleneoxy]phenyl]-2,4-pyrimidinediamine] it is greater than 10 µM; for `CNC(=O)COc1cc(Nc2ncc(F)c(Nc3cccc(O)c3)n2)cc(OCC(=O)NC)c1` [R926930, N2-[3,5-Bis[(N-methylamino)carbonylmethyleneoxy]phenyl]-5-fluoro-N4-(3-hydroxyphenyl)-2,4-pyrimidinediamine] it is greater than 10 µM. As for `Cc1noc(COc2ccc(Nc3nc(Nc4ccc5c(c4)OCCO5)ncc3F)cc2)n1` [R935145, N2-(3,4-Ethylenedioxyphenyl)-5-fluoro-N4-[4-(3-methyl-1,2,4-oxadiazol-5-yl)methyleneoxyphenyl]-2,4-pyrimidinediamine], the concentration for half-maximal inhibition (IC50) was greater than 10 µM. `CNC(=O)C(C)(Oc1cccc(Nc2ncc(F)c(Nc3ccc(OC(C)C)cc3)n2)c1)C(=O)NC` [R935196, N2-[3-(1-Bis(N-methylaminocarbonyl)ethoxy)phenyl]-5-fluoro-N4-(4-isopropoxyphenyl)-2,4-pyrimidineamine] gave an IC50 greater than 10 µM. Turning to `Oc1cccc(Nc2nc(Nc3ccc4[nH]ncc4c3)ncc2F)c1` [R935199, 5-Fluoro-N4-(3-hydroxyphenyl)-N2-(indazoline-5-yl)-2,4-pyrimidinediamine], the IC50 was greater than 10 µM. The figure for `CCOC(=O)CCn1ncc2ccc(Nc3nc(Nc4cccc(O)c4)ncc3F)cc21` [R935292, N4-[1-(2-Ethoxycarbonylethyl)indazoline-6-yl]-5-fluoro-N2-(3-hydroxyphenyl)-2,4-pyrimidinediamine] is greater than 10 µM. `OCCCn1ncc2ccc(Nc3ncc(F)c(Nc4cccc(O)c4)n3)cc21` [R935293, 5-Fluoro-N4-(3-hydroxyphenyl)-N2-[1-(3-hydroxypropyl)indazoline-6-yl]-2,4-pyrimidinediamine] showed a half-inhibitory concentration (IC50) greater than 10 µM. The value for `COC(=O)c1cc2cc(Nc3ncc(F)c(Nc4ccc5cnn(CCC(=O)O)c5c4)n3)ccc2o1` [R935296, N4-[1-(2-carboxyethyl)indazolne-6-yl]-5-fluoro-N2-(2-methoxycarbonylbenzofur-5-yl)-2,4-pyrimidinediamine] was greater than 10 µM; that for `COC(=O)c1ccc(Cn2cc3ccc(Nc4ncc(F)c(Nc5ccc6c(c5)OCCO6)n4)cc3n2)c(OC)c1` [R935336, N4-(3,4-Ethylenedioxyphenyl)-5-fluoro-N2-[2-(2-methoxy-4-carbomethoxybenzyl)indazoline-6-yl]-2,4-pyrimidinediamine] was greater than 10 µM; that for `CCOC(=O)CCn1ncc2cc(Nc3ncc(F)c(Nc4ccc(OC(F)(F)F)c(Cl)c4)n3)ccc21` [R935354, N4-(3-Chloro-4-trifluoromethoxy-phenyl)-N2-[1-(2-ethoxycarbonylethyl)indazoline-5-yl]-5-fluoro-2,4-pyrimidinediamine] was greater than 10 µM. For the molecule `Cn1ncc2cc(Nc3ncc(F)c(Nc4ccc5c(c4)OC(F)(F)O5)n3)ccc21` [R935357, N4-(3,4-Difluoromethylendioxyphenyl)-5-fluoro-N2-(1-methylindazoline-5-yl)-2,4-pyrimidinediamine], the IC50 is greater than 10 µM. For `Fc1cnc(Nc2ccc3cn[nH]c3c2)nc1Nc1cccc(OC(F)(F)F)c1` [R935363, 5-Fluoro-N2-(indazoline-6-yl)-N4-(3-trifluoromethoxyphenyl)-2,4-pyrimidinediamine], the half-inhibitory concentration (IC50) was greater than 10 µM.
